Patent publication US6881414B2, “Mild cosmetic composition with stabilized retinoids” (Unilever Home & Personal Care USA, division of Conopco, Inc., priority 2000, dated 2005)
Each block holds one compound with its values, some of them ahead of it.

Tests used:
[1] = target: T1, CRABPII (Homo sapiens, UniProt P29373); test: CRABPII antagonist radioactive binding assay (to identify B4); details: competition with radioactive all trans retinoic acid; ligand excess ratio not given
T1 construct: made in house; host or cells: E. coli BLR(DE3)pLysS
T1 sequence (P29373 1-138): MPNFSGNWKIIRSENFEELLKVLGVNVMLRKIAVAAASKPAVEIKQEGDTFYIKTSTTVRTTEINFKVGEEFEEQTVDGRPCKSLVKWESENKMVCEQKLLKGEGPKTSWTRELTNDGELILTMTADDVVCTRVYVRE
Text: 2.6 Assay for CRABPII Antagonists (To Identify B4)
2.6.1. Synthesis of CRABPII
The gene CRABPII was cloned in pET 29a-c(+) plasmid (Novagen). The cloned gene was under control of strong bacteriophage T7 transcription and translation signals. The source of T7 polymerase was provided by the host cell E.coli BLR(DE3)pLysS (Novagen). The latter has a chromosomal copy of T7 polymerase under lacUV5 control, induced by the presence of IPTG.
The plasmid was transferred into E. coli BLR(DE3)pLysS cells by transformation according to the manufacturer protocol (Novagen).
An overnight culture of the transformed cells was diluted 1:100 into 2×YT containing 50 μg/mL kanamycin and 25 μg/mL chloramphenicol. The cells grew while shaking at 37° C. until the OD at 600 nm reached 0.6-0.8. Then IPTG was added to a final concentration of 1 mM and the culture was incubated for an additional two hours. The cells were harvested by centrifugation at 5000 g for 10 minutes at room temperature. The pellet was stored at −20° C.
Purification was performed according to the method described in A. W. Norris & E. Li, Generation and characterization of cellular retinoic acid-binding proteins from Escherichia coli expression systems”. Methods Enzymol. 282:3-13 (1997).
The frozen pellet was thawed at RT and resuspended in 1-2 pellet volumes of freshly prepared lysis buffer (50 mM Tris-HCl, pH 8, 10% (w/v) sucrose, 1 mM EDTA, 0.05% (w/v) sodium azide, 0.5 mM DTT, 10 mM MnCl2, 2.5 mM phenylmethylsulfonyl fluoride, 2.5 mM benzamidine, 6 μg/mL DNase). The lysate was incubated for 30 min at room temperature. Further lysis was accomplished by sonication (six 30-sec bursts at […] alternated with five 30-sec delay on ice). […]
The supernatant from step a. was loaded onto a 2.5×100 cm column of sephacryl S-300 (Pharmacia) at room temperature. […] Collected 2-mL fractions were checked for ultraviolet absorbance at 280 nm. […]
For the competitive assay, another ligand in excess (6670:1, 670:1 or 70:1) was added to the mix. […] The radioactivity of the filtrate was measured by scintillation counter.

[2] = Retinoid solubility in oil (UV spectroscopy of filtrate); type: physicochemical
Protocol: As an illustration, solubility of retinol crystals in varying oils is as follows:
Retinoid solubility in oil is determined by the following procedure. A known weight of pure retinoid in excess of the expected solubility limit in the oil is added in an oil. Methanol is added to the mixture to dissolve all retinoid crystals. Nitrogen sparging is used to ensure all methanol was evaporated from the oil. Retinoid is allowed to recrystallize overnight. The sample is filtered through a 0.45 micron filter. Known dilutions of the filtrate in isopropanol are measured by UV spectroscopy at an appropriate wavelength (325 nm for retinol) and the concentration of retinoid determined against calibration standards of retinoid in isopropanol.

[3] = system: TGase I in keratinocytes; test: Transglutaminase (TGase I) ELISA assay in cultured keratinocytes; type: cell-based; details: added effect of booster+retinol induced TGase inhibition over retinol alone
[4] = target: T2, LRAT (Bos taurus, UniProt Q9BGL2); test: LRAT activity assay, RPE microsomes (to identify B1); type: biochemical, bovine; details: for % Inhibition LRAT (10 μm): compound 10 μm; for % Inhibition LRAT (100 μm): compound 100 μm
T2 construct: followed by approximately 15 μg of RPE microsomal protein; tissue W. L. Lawson Co; host or cells: bovine retinal pigment epithelium microsomes
T2 sequence (Q9BGL2 1-230): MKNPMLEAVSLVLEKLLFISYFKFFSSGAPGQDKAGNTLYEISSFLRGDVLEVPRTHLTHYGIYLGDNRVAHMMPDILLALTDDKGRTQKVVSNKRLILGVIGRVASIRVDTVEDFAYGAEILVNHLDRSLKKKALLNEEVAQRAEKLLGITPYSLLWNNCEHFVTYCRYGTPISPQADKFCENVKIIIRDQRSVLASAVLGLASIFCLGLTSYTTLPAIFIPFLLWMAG

Structure (SMILES): CCCCCCCC/C=C/CCCCCCCC(=O)O [Elaidic Acid]
% Inhibition CRABPII [1]: >50%

Structure (SMILES): CN1CCN(C)C1=O [Dimethyl Imidazolidinone]
% Inhibition Overall TG (- ROH/RE) [3]: 22%

Structure (SMILES): CC(C)=CCCC(C)=CCCC(C)=CCO [Farnesol]
% Inhibition LRAT (10 μm) [4]: 10% +/− 7

Structure (SMILES): CC(C)=CCC/C(C)=C/CC/C(C)=C/CC/C(C)=C/CO [Geranyl Geraniol]
% Inhibition LRAT (10 μm) [4]: 16% +/− 9

Structure (SMILES): CC(/C=C/C=C(\C)C(=O)O)=C\C=C\C=C(C)\C=C\C=C(/C)C(=O)O [Crocetin]
% Inhibition LRAT (10 μm) [4]: 0%

Results, then the compound that gave them:

Solubility of retinol crystals in oil ([2]; in C12-15 Alkyl benzoate): 85 wt %
Solubility of retinol crystals in oil ([2]; in Cetiol OE): 80 wt %
Solubility of retinol crystals in oil ([2]; in Cyclomethicone): 2.7 wt %
Solubility of retinol crystals in oil ([2]; in Dimethicone): 0.49 wt %
Solubility of retinol crystals in oil ([2]; in Isostearyl palmitate): 44 wt %
Solubility of retinol crystals in oil ([2]; in Mineral oil): 34.2 wt %
Solubility of retinol crystals in oil ([2]; in Triolein/Squalene (6:1)): 56.4 wt %
Structure (SMILES): CC1=C(/C=C/C(C)=C/C=C/C(C)=C/CO)C(C)(C)CCC1 [retinol]

% Inhibition LRAT (100 μm) [4]: 0%
Structure (SMILES): C=CC(C)(O)CCC=C(C)C (centres unmarked) [Linatool]

% Inhibition Overall TG (- ROH/RE) [3]: 59%
Structure (SMILES): CCCCC/C=C\C/C=C\CCCCCCCC(=O)N(CCO)CCO [Linoleamide-DEA, Linoleoyl Diethanolamide]

% Inhibition LRAT (100 μm) [4]: 14%
Structure (SMILES): O=C1C[C@@H](c2ccc(O)cc2)Oc2cc(O)cc(O)c21 [Naringenin]

% Inhibition CRABPII [1]: >50%
Structure (SMILES): CC(C)CCCCCCCCCCCCCCC(=O)O [Isostearic Acid]

% Inhibition CRABPII [1]: >50%
Structure (SMILES): O=C(O)CCCCCCCCCCCCCCC(=O)O [Hexadecanedioic Acid]
